For one assay, the system named is microglia. The assay can be described thus: Ex vivo phagocytosis of microglia in brain slices (time-lapse confocal). Also on record: species or system mouse. The following applies: brain slices of CX3CR1 GFP/+ mice. The method, then: In this experiment, in order to examine the phagocytotic action of microglia, the brain of a 9-week-old male CX3CR1^GFP/+ mouse was cut to a thickness of 150 μm using a vibratome (Leica VT1200) and then stored in an ice-cooled artificial cerebrospinal fluid (aCSF: 120 mM NaCl, […], 25 mM NaHCO3, 1.25 mM NaH2PO4, 5 mM KCl, 1 mM CaCl2, 1 mM MgSO4, […], pH7.4). Thereafter, the sliced brain was cultured for removal of cell debris. Oxygenated aCSF was pretreated in a perfusion chamber at 37° C. for 2 hours. Subsequently, before culture, the sliced brain was cultured with 500 μl of aCSF containing 9.10×10^7 microspheres ([…]; #17458; Polysciences) and covered with a custom-made nylon grid. Time lapse videos were taken at intervals of 1 minute for 92 minutes using a confocal microscope. The number of phagocytosing microglia was calculated from the images.

Another assay has as its target T1, Olfr110 F104W mutation (Mus musculus, UniProt A2RT31, F104W).
T1 construct: Full-length odorant receptor genes from mouse and human genomic DNA were amplified using appropriate primers; Lucy (N); Flag (N); Rho (N); expressed in transfected cells; host or cells: Hana3A cells
T1 sequence (A2RT31 1-317 F104W): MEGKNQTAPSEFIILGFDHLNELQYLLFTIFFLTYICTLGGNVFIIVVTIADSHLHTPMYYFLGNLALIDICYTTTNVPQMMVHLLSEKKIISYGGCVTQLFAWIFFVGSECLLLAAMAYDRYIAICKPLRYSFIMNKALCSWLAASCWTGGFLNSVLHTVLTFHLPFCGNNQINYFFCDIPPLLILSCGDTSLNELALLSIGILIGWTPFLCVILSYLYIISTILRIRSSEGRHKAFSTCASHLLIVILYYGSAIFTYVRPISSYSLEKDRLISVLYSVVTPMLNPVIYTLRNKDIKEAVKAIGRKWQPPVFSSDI
The assay can be described thus: Luciferase assay, Olfr110 F104W mutant. Type of assay: cell-based. As to conditions: increasing concentration of 2-PF. From the text:
Specific mutant vectors of the Olfr110 structure were generated using PfuUltra High-Fidelity DNA polymerase (#600380; Agilent Technologies). All mutant vectors (F102W; F104W; Y252F; Y259F; F102W/F104W; Y252F/Y259F; F102W/Y252F/Y259F; F104W/Y252F/Y259F; F102W/F104W/Y252F/Y259F) were sequenced in forward and reverse directions (Macrogen).

Assay [1] in a line: Disease behavior: mouse mobility (movement distance) after IP injection. Type of assay: in vivo. As to conditions: after intraperitoneal (IP) injection. The method, then:
It is known that an increase in disease behavior by activation of microglia is due to an increase in secreted cytokines. This experiment was conducted to confirm an increase in disease behavior with an increase in cytokines. The evaluation of disease behavior was made after IP injection of Sup or 2-PF into the mice.
After IP injection, the mouse was placed in a space with four open sides (40×40×40 cm, white field, black wall), and after the position of the mouse was recorded for 30 minutes using a camera, the movement distance was calculated Thereafter, a pseudo-color heat map was drawn using EthoVision XT (Noldus, Netherlands).

The test system of assay [2] is primary microglia. The assay can be described thus: Phagocytosis of FITC-dextran by primary microglia (FACS). Type of assay: cell-based, mouse. As to conditions: 100, 300, and 500 μM. As to the method: Primary microglia were cultured for 24 hours after being seeded in a 24-well plate (5×10^5 cells/well). Cells were pre-cultured with 2-PF or Sup for 30 minutes, transferred to FITC-dextran (1 mg/ml, 20 mg/ml in PBS; #FD70S; Sigma Aldrich) in serum-free DMEM at 37° C. for […], and washed with PBS at 4° C. Cells were detached by 0.25% trypsin in PBS (#15090-046; Thermo Fisher Scientific) and the detached cells were analyzed by FACS Accuri™ C6 (BD Biosciences). Mean fluorescence intensity (MFI) was calculated by integrating fluorescence histograms under each condition using the aforementioned software. The phagocytosis index was defined as MFI using an untreated group as a standard.

In assay [3] the test system is primary microglia. The experiment in a line: Boyden chamber chemotaxis of primary microglia. Type of assay: cell-based, mouse. As to conditions: 100, 300, and 500 μM. The method, then:
(§1) Cell chemotaxis was measured using a multiwell Boyden chamber. More specifically, a polycarbonate filter (8 μm pore; #101-8; Neuroprobe) was coated with […] fibronectin in PBS (Sigma-Aldrich) for 2 hours, and the coated filter was placed in a Boyden chamber. In addition, the bottom side of the plate was filled with serum-free DMEM containing 2-pentylfuran or a culture supernatant. Next, microglia or Hana3A cells were transfected with an odorant receptor structure and then suspended in serum-free DMEM. Subsequently, microglia and Hana3A cells were allowed to stand at 37° C. for 4 hours and 8 hours, respectively. Cells sinking to the bottom were fixed with 4% PFA, and stained with hematoxylin for 10 minutes. Fixed cells were counted under an optical microscope in 5 randomly selected fixed […] fields (200×) using a scored eyepiece. The chemical chemotaxis index was defined as the number of migrating cells using an untreated group as a standard.

Assay [4] concerns Hana3A cells expressing Olfr111. The assay can be described thus: Boyden chamber chemotaxis, Hana3A cells expressing Olfr111. The class given is cell-based. The following applies: 2-PF 10, 100, 1000 uM. As to the method: as §1
The next assay concerns the target T2, Olfr110 (Mus musculus, UniProt A2RT31).
T2 construct: Full-length odorant receptor genes from mouse and human genomic DNA were amplified using appropriate primers; Lucy (N); Flag (N); Rho (N); expressed in transfected cells; host or cells: Hana3A cells, co-transfected with RTP1S, pCRELuc and pRL-SV40
T2 sequence (A2RT31 1-317): T1 sequence (A2RT31 1-317 F104W) with W104F
The assay can be described thus: Luciferase assay in Hana3A cells, Olfr110. The class given is cell-based.

From patent US12396977B2, “Composition for treating degenerative brain diseases, containing 2-pentylfuran as active ingredient” (DAEGU GYEONGBUK INSTITUTE OF SCIENCE AND TECHNOLOGY, priority 2019, dated 2025) come the findings set out here.

The structures appear in SMILES notation. Changes are numbered by the printed parent chain. Entries after “also recorded” stand apart in the source; their conditions may differ.

Take `CCCCCc1ccco1` [2-PF, 2-pentylfuran]: the “ex vivo phagocytosis activity of microglia” value in the assay with microglia is “increased”. For the same compound, on Olfr110 F104W mutation, the “luciferase activity of Olfr110 F104W mutant” value is “completely lost”. Moreover, the “mobility of the mouse (total movement distance)” value in assay [1] is given as “concentration-dependent decrease”. Besides, in the assay on primary microglia [2], the phagocytosis of microglia entry is “significantly increased in a concentration-dependent manner”. For the same compound, in the assay on primary microglia [3], the chemotaxis of microglia entry is “significantly increased in a concentration-dependent manner”. In addition, in assay [4], the “mobility (chemotaxis) of Olfr111-expressing Hana3A cells” value is listed as “increased in mobility in a concentration-dependent manner”. The “mode of action at Olfr110” value on Olfr110 is recorded as “agonist”. Moreover, the “reactivity of Olfr110 (relative luciferase activity)” value on Olfr110 (Hana3A cells) is “particularly strong reactivity; also recorded: strongest reactivity”.
